US9199200B2, “Submerged membrane bioreactor system and biological methods for removing bisphenol compounds from municipal wastewater” (Centre de Recherche Industrielle de Québec (CRIQ), priority 2010, dated 2015)

Tests used:
[1] = Adsorption kinetics of BPA on inactivated sludge (pseudo-first order, pseudo-second order, Elovich); assay type: physicochemical
Description: According to the second set of assays, adsorption kinetic is evaluated using 200 mL of inactivated sludge at 15 g L^−1 and 2.0 mg/L of BPA is initially used. The flasks are shaken at 150 rpm at 22±2° C. and samples are taken at regular interval times (5, 10, 15, 20, 30, 40, 60, 80, 100, 120 min). Several appropriate models are reported in literature, but for the purposes of the experiments, three models are used, namely the Lagergren model (first order model) as described by Lagergren in Kung Sven. Veten. Hand 24 (1898) 1-39, the pseudo-second-order as described by Ho et al. in Process Biochemistry 34 (1999) 451-465, and the Elovich model as described in Chemical reviews (1960) 267-312.
Adsorption kinetic allows controlling the efficiency of the process and can be helpful to understand the mechanisms of the sorption process. To evaluate the sorption rate, the kinetic data are modeled using pseudo-first order and pseudo-second order equations. The kinetic models parameters are estimated by regression analysis method using Excel™ software. In accordance with Lagegren as cited above and with Bhattacharya et al., J. Env. Eng. ASCE 110 (1984) 110-122, pseudo-first order chemical sorption is described by the following equation (Eq. (15)):
This model is based on the assumption that the rate is proportional to the number of free sites. Integrating Eq. (15) with boundary conditions qt=0 at t=0 and qt=qt at t=t gives (Eq. (16)): ln(qe−qt)=ln qe−k1t (16)
In accordance with Ho et al. as cited above, for the rate constant of pseudo-second order chemical sorption, the following equation (Eq. (17)) has been also applied: […]
A third model, known as Elovich model described in Low et al. cited above, has been applied using the following equation (Eq. (19)): […]
If an amount (q0) of adsorbate is instantaneously adsorbed, after integration equation Eq. (20) becomes (Eq. (21)): […]

[2] = Equilibrium adsorption isotherms of BPA on inactivated sludge (Freundlich, Langmuir); assay type: physicochemical
Description: To elucidate the plausible mechanisms of the biological removal of the bisphenol compounds, the removal of BPA was tested (adsorption on the biomass versus biological oxidation), and additional experiments are carried out in Erlenmeyer shake flasks containing either activated sludge or inactivated sludge in the presence of BPA. The sludge used for the tests is withdrawn from the SMBR unit. Prior to BPA addition in activated sludge sample, sludge is initially centrifuged at 8000 rpm at 4° C. for 10 min and softly washed. The inactivated sludge is prepared by subjecting sludge samples to a sterilization by adding 1.0 mL HgSO4 (20 g/L) to 200 mL of sludge. Then, the sterilized and centrifuged sample sludge is placed in conical flasks and shaken at 150 rpm at 22±2° C. for 2 h, and then centrifuged at 8000 rpm at 4° C. for 10 min. Different concentrations of BPA (0.45 to 18.2 mg/L) are added in the same mass of sludge (3.0 g of sludge diluted to 200 mL with milli-Q water). The concentration of total suspended solid (sludge) in the flask was 15 g TSS L^−1, which is similar to that observed in the SMBR system of the present invention. Three types of experiments are successively carried out. The first set tests consists in evaluating the adsorption capacity of BPA on sludge. For that, two Erlenmeyer shake flasks containing 200 mL of activated sludge (15 g TSS L^−1) are respectively contaminated by 5 and 10 mg/L of BPA. The flasks are shaken at 150 rpm at 22±2° C., pH=7±0.5 for 24 h and samples are taken in regular time intervals, and the amount of BPA adsorbed is determined by measuring the residual BPA concentrations in solution The same assay is carried out using inactivated sludge. Subsequently, isotherm adsorption experiments are carried out using different concentrations of BPA (0.45-18.2 mg/L) spiked in a same mass of sludge (200 ml of inactivated sludge at 15 g TSS/L). The flasks are shaken at 150 rpm for 2 h and samples are taken for analysis.
By analogy, the amount of BPA adsorbed on sludge at equilibrium (qe, mg/g) and the sorption efficiency is determined according to equations (1) described above. The specific adsorption coefficient (KD) can also be calculated. The coefficient KD is the ratio between the amount of BPA adsorbed on sludge at equilibrium (qe) and the residual (Ce) concentrations, according to the following equation (Eq. (3)): […]
Thermodynamic equilibrium constants are determined in order to evaluate adsorption affinity of BPA on sludge. The amount of BPA adsorbed on sludge is calculated using the following equation (Eq. (10)): […]
Adsorption isotherms allow presenting the variation of sorption with respect to the concentration of sorbate in the bulk solution at constant temperature. Equilibrium adsorptions of BPA on the biomass using Freundlich and Langmuir models are studied. These isotherms describe BPA uptake per unit weight of sorbent (qe) in function of the equilibrium sorbate concentration in the bulk solution (Ce). The Freundlich isotherm is described by the following equation (Eq. (11)) and is illustrated in FIG. 12: […]
The Langmuir isotherm is described by the following equation (Eq. (12)) and is represented in FIG. 13: […]
In fact, Langmuir adsorption isotherm is valid for monolayer sorption on a surface containing a limited number of sites, predicting a homogenous distribution of sorption energy. The reorganization of Eq. (12) leads to the following equation (Eq. (13)) as the linearised form of the Langmuir isotherm: […]
From Langmuir isotherm, it is possible to define a dimensionless constant (RL) taking into account the separation factor of equilibrium parameter. This dimensionless constant allows predicting if the adsorption system is favorable or not, as explained in Shokoohi et al. as cited above and by Gao et al. Journal of Fluorine Chemistry 130 (2009) 1035-1041. RL can be evaluated using the following equation (Eq. (14)): […]

[3] = tested on: aquatic ecosystems; details: Oehlmann et al.; cited from earlier work
[4] = 2.0 mg/L BPA, 15 g/L inactivated sludge

Compound: CC(C)(c1ccc(O)cc1)c1ccc(O)cc1 [BPA, 2,2-Bis(4-hydroxyphenyl)propane]
- q0 as share of the amount of BPA adsorbed at equilibrium (qe) [1]: 1.2%
- k1, pseudo-first order rate constant [1, 4]: 0.032 min⁻¹
- k2, pseudo-second order rate constant [1, 4]: 0.194 g/mg/min
- q0, amount of BPA instantaneously adsorbed (Elovich) [1, 4]: 0.0013 mg/g
- qe, pseudo-first order (Lagergren) [1, 4]: 0.109 mg/g
- qe, pseudo-second order [1, 4]: 0.132 mg/g
- α (Elovich) [1, 4]: 24.98 g/mg
- α (Elovich), second parameter [1, 4]: 0.0040 mg/g/min
- Freundlich parameter shown as formula MATH:00015 [2]: 0.819
- KL (Langmuir constant) [2]: 0.370 L/g
- RL (dimensionless separation factor, Langmuir) [2]: 0.11
- b (Langmuir constant) [2]: 0.444 L/mg
- kf (Freundlich isotherm constant) [2]: 0.231 mg^1-1/n g^−1 · L^1/n
- n (Freundlich constant, adsorption intensity) [2]: 1.22
- qm, maximum BPA concentration capable of being adsorbed on sludge (Langmuir, KL/b) [2]: 0.833 mg/g
- Adsorbed fraction ([2]; C0 0.45 mg/L): 84.4%
- Equilibrium liquid phase concentration of BPA (Ce) ([2]; C0 0.45 mg/L): 0.07 mg/L
- Adsorbed fraction ([2]; C0 0.91 mg/L): 85.7%
- Equilibrium liquid phase concentration of BPA (Ce) ([2]; C0 0.91 mg/L): 0.13 mg/L
- Adsorbed fraction ([2]; C0 1.82 mg/L): 78.6%
- Equilibrium liquid phase concentration of BPA (Ce) ([2]; C0 1.82 mg/L): 0.39 mg/L
- Adsorbed fraction ([2]; C0 4.74 mg/L): 77.0%
- Equilibrium liquid phase concentration of BPA (Ce) ([2]; C0 4.74 mg/L): 1.09 mg/L
- Adsorbed fraction ([2]; C0 9.47 mg/L): 76.0%
- Equilibrium liquid phase concentration of BPA (Ce) ([2]; C0 9.47 mg/L): 2.27 mg/L
- Adsorbed fraction ([2]; C0 13.67 mg/L): 74.8%
- Equilibrium liquid phase concentration of BPA (Ce) ([2]; C0 13.67 mg/L): 3.45 mg/L
- Adsorbed fraction ([2]; C0 18.22 mg/L): 70.5%
- Equilibrium liquid phase concentration of BPA (Ce) ([2]; C0 18.22 mg/L): 5.37 mg/L
- Adsorption removal of BPA on sludge ([2]; of initial liquid phase concentration, 0.45-18.2 mg/L): 70.5 to 85.7%
- Concentration of BPA with adverse effects in aquatic ecosystems [3]: below 1.0 μg/L
